According to patent US5112807A, “Compound "Leualacin", its preparation and its use in the treatment of cardiovascular disorders” (Sankyo Company, Limited, priority 1988, dated 1992):

Key:
[1] = biological target: T1, calcium channel (3H-nitrendipine binding to microsome fraction prepared from porcine heart) (Sus scrofa, UniProt A0A8W4FNC0); assay: Radioligand binding assay: inhibition of 3H-nitrendipine binding to microsomes; details: 200 PM 3H-nitrendipine, 25° C., 30 minutes, pH 7.4, read-out: ID50, inhibition of binding of 3H-nitrendipine to microsomes (converted)
T1 construct: 15 to 20 μg of a microsome fraction prepared from porcine heart; from tissue; host or cells: porcine heart microsome fraction
Source text: The progress of the cultivation and the amount of Leualacin produced as the culture proceeds can be determined by a radio ligand binding assay method, that is, for example, the method of […] and R. E. Oswald [Journal of Biological Chemistry, 260, 8456-8464 (1985)] which is based on the ability of Leualacin to inhibit the binding of ^3 H-nitrendipine to microsomes. High performance liquid chromatography may also be used. […] This experiment used a radioligand binding assay method, which is a modification of the method of […] and R. E. Oswald [Journal of Biological Chemistry, 260, 8456-8464 [(1985)], to determine the activity which inhibits the binding of ^3 H-nitrendipine to microsomes. The reaction was carried out at 25° C. for 30 minutes in 1 ml of a reaction mixture comprising 15 to 20 μg of a microsome fraction prepared from porcine heart, 200 PM ^3 H-nitrendipine (NEN-Dupont Pharmaceuticals, specific activity 88.1 Ci/mM), 50 mM NaOH-HEPES buffer (pH 7.4) and 0.5% by volume ethanol. (HEPES is N-2-hydroxyethylpiperazine-N'-2-ethanesulfonic acid). […] The glass-fibre filter was then put in a vial and OPTIFLUOR (Packard Co., Ltd.) was used as the scintillator and the radioactivity (as disintegrations per minute) was measured.

[2] = test system: SHR (spontaneously hypertensive rats); assay: Antihypertensive activity in SHR; type: in vivo; details: conscious male SHR
Protocol: Male SHR (spontaneously hypertensive rats), 15 weeks old, were anesthetized with sodium pentobarbital (50 mg/kg intraperitoneally). and a polyethylene cannula was inserted through the left femoral artery into the abdominal aorta. The other end of the cannula was led out of the body and fixed at the back of the neck. One week after the operation, when the animal had recovered from the stress of the surgery, the other end of the cannula was connected to a blood pressure transducer, which was constructed according to the directions of Laffan et al. [Laffan, P. J., Peterson A., Hitch S. W. and Jeunelot C., Cardiovascular Res. 6, 319-324 (1972)], but with slight modifications. The blood pressure and heart rate of the conscious and unstressed SHR were measured. After the blood pressure and the heart rate had stabilised for more than one hour, the test drug was administered by gavage. After administration of the test sample, the blood pressure and the heart rate were measured every 15 minutes over a […] is shown in Table 2.

mice = assay: Acute toxicity; type: in vivo; details: orally, 200 mg/kg
Protocol: No toxicity was noted when Leualacin was orally administered to mice at a dose of 200 mg/kg, which is far in excess of any reasonable therapeutic dose.

[3] = Chemical and physical properties: description and solubility; type: physicochemical
Source text: Leualacin has the molecular structure shown above and the following chemical and physical properties: […]

tenia caecum = assay: Calcium antagonizing action in the tenia caecum; type: cell-based, guinea pigs; details: 30 minutes incubation, calcium chloride-induced contraction
Protocol: The calcium antagonizing activity in the tenia caecum was measured according to the method of M. Spedding [Naunyn-Schmiedeberg's Arch. Pharmacol. 318, 234-240(1982)]. Male guinea pigs weighing 250 to 300 g were laparotomized under pentobarbital anesthesia and the tenia was immediately removed from the caecum. The tenia was cut into strips of 6-7 cm length and suspended in a Magnus vessel filled with 20 ml of Tyrode's solution without calcium aerated with a mixed gas (O2 95%-CO2 5% by volume). After the specimen had eguilibrated by standing for 1 hour under the above conditions, 0.2 ml each of 30, 100 and 300 mM aqueous calcium chloride solutions were cumulatively added at 3 minute intervals and the contraction of the specimen was measured. After the measurements, the specimen was washed twice with Tyrode's solution without calcium and left for 30 minutes. The specimen was then incubated with Leualacin for 30 minutes, after which 0.2 ml each of 30, 100 and 300 mM calcium chloride solutions were cumulatively added at 3 minute intervals in the same manner as above, and the contraction was again measured. The contraction after the treatment with the Leualacin solution was deducted from that after the treatment with the calcium chloride solution alone and the value obtained was divided by the contraction after the treatment with the calcium chloride solution alone, to give the antagonizing rate.

T1 sequence (A0A8W4FNC0 1-2067): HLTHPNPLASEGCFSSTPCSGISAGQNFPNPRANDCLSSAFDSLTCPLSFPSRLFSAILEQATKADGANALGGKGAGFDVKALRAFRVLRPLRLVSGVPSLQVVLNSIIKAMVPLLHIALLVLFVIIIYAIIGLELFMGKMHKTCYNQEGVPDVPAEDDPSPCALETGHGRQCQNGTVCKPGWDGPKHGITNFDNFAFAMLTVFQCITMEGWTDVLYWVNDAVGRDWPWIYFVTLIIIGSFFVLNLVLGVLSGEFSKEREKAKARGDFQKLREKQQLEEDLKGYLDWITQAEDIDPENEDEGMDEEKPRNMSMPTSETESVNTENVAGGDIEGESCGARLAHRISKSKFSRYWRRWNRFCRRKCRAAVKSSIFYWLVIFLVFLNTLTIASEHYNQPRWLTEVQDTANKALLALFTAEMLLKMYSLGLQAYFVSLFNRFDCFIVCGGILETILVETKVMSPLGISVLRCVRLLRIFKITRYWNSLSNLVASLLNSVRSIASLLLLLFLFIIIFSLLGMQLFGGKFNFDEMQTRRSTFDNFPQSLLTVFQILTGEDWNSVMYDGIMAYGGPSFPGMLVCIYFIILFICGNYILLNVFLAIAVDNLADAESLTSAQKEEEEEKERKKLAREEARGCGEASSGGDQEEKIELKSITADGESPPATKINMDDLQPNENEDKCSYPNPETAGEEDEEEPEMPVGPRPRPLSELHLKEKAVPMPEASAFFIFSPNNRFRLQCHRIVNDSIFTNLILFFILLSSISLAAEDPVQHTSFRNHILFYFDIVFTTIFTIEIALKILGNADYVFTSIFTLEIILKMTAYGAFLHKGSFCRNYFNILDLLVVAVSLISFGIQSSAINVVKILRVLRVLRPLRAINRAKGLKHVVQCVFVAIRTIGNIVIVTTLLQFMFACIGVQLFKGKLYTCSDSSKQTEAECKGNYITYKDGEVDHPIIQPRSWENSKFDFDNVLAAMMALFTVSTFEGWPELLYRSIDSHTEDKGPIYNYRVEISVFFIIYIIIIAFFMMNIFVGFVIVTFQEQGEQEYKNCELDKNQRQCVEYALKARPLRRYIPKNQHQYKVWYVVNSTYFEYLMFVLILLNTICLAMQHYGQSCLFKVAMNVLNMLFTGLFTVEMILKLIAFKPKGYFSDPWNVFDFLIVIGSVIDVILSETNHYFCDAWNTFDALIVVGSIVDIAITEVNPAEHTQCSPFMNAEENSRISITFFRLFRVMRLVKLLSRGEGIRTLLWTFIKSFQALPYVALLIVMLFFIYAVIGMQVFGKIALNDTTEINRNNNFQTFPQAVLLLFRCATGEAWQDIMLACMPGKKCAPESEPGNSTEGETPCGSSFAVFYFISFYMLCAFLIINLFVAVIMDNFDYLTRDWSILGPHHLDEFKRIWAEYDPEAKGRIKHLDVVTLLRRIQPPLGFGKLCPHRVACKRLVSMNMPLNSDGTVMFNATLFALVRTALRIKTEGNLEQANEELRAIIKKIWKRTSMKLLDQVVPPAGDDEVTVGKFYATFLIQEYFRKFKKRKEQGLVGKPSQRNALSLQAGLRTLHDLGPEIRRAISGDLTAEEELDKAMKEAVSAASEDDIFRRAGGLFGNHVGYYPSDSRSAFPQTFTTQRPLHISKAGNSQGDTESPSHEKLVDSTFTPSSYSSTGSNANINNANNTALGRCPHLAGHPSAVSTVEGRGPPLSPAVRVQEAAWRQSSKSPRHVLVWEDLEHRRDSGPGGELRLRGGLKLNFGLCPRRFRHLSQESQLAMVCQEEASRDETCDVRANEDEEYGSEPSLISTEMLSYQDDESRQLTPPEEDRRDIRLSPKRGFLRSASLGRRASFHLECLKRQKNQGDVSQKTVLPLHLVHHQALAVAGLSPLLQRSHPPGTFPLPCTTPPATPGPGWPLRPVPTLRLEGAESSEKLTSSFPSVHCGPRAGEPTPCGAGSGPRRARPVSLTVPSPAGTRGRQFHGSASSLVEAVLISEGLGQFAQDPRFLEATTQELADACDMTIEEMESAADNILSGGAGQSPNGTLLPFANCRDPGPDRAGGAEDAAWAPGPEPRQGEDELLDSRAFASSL

**Q.** Which IC50 [1] does the source give for CC(C)CC1NC(=O)C(CC(C)C)OC(=O)CCNC(=O)C(Cc2ccccc2)N(C)C(=O)C(CC(C)C)OC1=O (centres unmarked) [Leualacin, 11-benzyl-2,5,8-triisobutyl-10-methyl-1,7-dioxa-4,10,13-triazacyclohexadec ane-3,6,9,12,16-pentone] here?
**A.** Its IC50 is 1730 nM.

**Q.** And the “Decrease of blood pressure (mmHg)” value ([2]; 100 μg/kg by gavage)?
**A.** Its value is 44 mmHg.

**Q.** And the “Decrease of blood pressure (mmHg)” value ([2]; 300 μg/kg by gavage)?
**A.** The value was 57 mmHg.

**Q.** And the Acute toxicity (mice)?
**A.** Its Acute toxicity is “No toxicity”.

**Q.** What about the Description [3] of the same compound?
**A.** Its Description is “neutral, fat-soluble”.

**Q.** What about the “Solubility in organic solvents” value ([3]; methanol, acetone, chloroform and ethyl acetate) of the same compound?
**A.** The value was “Soluble”.

**Q.** What about the Solubility in water ([3]; water) of the same compound?
**A.** The Solubility in water was “insoluble”.

**Q.** And the “Antagonizing rate (%)” value (tenia caecum; Leualacin 10^-6 g/ml)?
**A.** The value was 97%.

**Q.** What about the “Antagonizing rate (%)” value (tenia caecum; Leualacin 10^-7 g/ml) of the same compound?
**A.** Its value is 73%.

**Q.** And the “Antagonizing rate (%)” value (tenia caecum; Leualacin 10^-8 g/ml)?
**A.** Its value is 22%.

**Q.** And the “Antagonizing rate (%)” value (tenia caecum; Leualacin 10^-9 g/ml)?
**A.** The value was 0%.
